Results reported in patent publication US20240173292A1, “COMPOUNDS THAT SYNERGIZE WITH COPPER TO KILL STREPTOCOCCUS PNEUMONIAE” (priority 2021, published 2024).
“Also recorded” adds a separate entry of the source. Where two headings read alike, the source gives them in different places.

Legend:
WT TIGR4 S. pneumoniae [1] = experiment: Killing curves in THYB
M. tuberculosis = details: cited from earlier work
WT TIGR4 S. pneumoniae [2] = experiment: Growth curves in ThyB with copper sulfate and compound; details: for copper-dependent toxicity (CDT) / growth defect in growth curve: compound plus copper sulfate
Schistosoma mansoni = details: newly transformed and lung stage schistosomula; cited from earlier work
[3] = test system: WT TIGR4 bacteria co-cultured with activated J774A.1 macrophages; experiment: Macrophage killing assay, TIGR4 co-cultured with J774A.1 macrophages; assay type: cell-based, murine; details: macrophages with 100 μM inhibitor; bacteria treated with 250 μM Cu2+ + 16 μM DMDC
ΔcopA mutant strain = experiment: Growth curves in ThyB with copper sulfate and compound, copper exporter deficient mutant; assay type: cell-based, Streptococcus pneumoniae; details: compound plus copper
From the text: Final solution was set to pH 6.6.

S. aureus = details: cited from earlier work
[4] = cited from earlier work
Coccidioides posadasii = details: inhaler with 50 mg DMDC twice a day for a week
Streptococcus pyogenes = details: inhaler with 25 mg DMDC twice a day for two weeks
Streptococcus pneumoniae = details: 150 mg DMDC orally once a day for a week
WT TIGR4 S. pneumoniae [5] = details: M17
[6] = test system: Methicillin-resistant Staphylococcus aureus (MRSA); details: topical cream containing 50 mg DMDC twice daily
TIGR4 S. pneumoniae [7] = details: GFAAS
WT TIGR4 S. pneumoniae [8] = details: RPMI
TIGR4 S. pneumoniae [9] = details: ICP-OES

CCN(CC)C(=S)SSC(=S)N(CC)CC [TETD, tetraethylthiuram disulfide]
bactericidal activity in killing curve (WT TIGR4 S. pneumoniae [1]; compound alone or with copper sulfate): did not show bactericidal activity | copper dependent toxicity against M. tuberculosis (M. tuberculosis): copper dependent toxicity | growth with compound alone (WT TIGR4 S. pneumoniae [2]; TETD alone, no copper): prevented growth | copper-dependent toxicity (CDT) / growth defect in growth curve (WT TIGR4 S. pneumoniae [2]; WT TIGR4): returned growth to wild type levels | copper-dependent toxicity (CDT) / growth defect in growth curve (WT TIGR4 S. pneumoniae [2]; WT TIGR4, listed as disulfiram): not observed

O=C(C1CCCCC1)N1CC(=O)N2CCc3ccccc3C2C1 (stereo not drawn) [praziquantel]
efficacy of praziquantel in these developmental stages (Schistosoma mansoni): not effective

N=C(N)NOCC[C@H](N)C(=O)O [L-canavanine]
recovered bacteria with macrophage inhibitor treatment [3]: no statistically significant improvement

Oc1cccc2cccnc12 [8HQ, 8-hydroxyquinoline]
CDT / growth defect in growth curve, ΔcopA (ΔcopA mutant strain): susceptible; also recorded: does cause a growth defect | CDT against S. aureus (S. aureus): have CDT | toxicity in mammals ([4]; mammals): inherent toxicity | copper-dependent toxicity (CDT) / growth defect in growth curve (WT TIGR4 S. pneumoniae [2]; WT TIGR4): no 8HQ mediated CDT; also recorded: do not cause a significant growth defect

Cc1ncc(CSSCc2cnc(C)c(O)c2CO)c(CO)c1O.Cl [pyrithoxin dihydrochloride]
copper-dependent toxicity (CDT) / growth defect in growth curve (WT TIGR4 S. pneumoniae [2]; WT TIGR4): no effect

O.c1cnc2c(c1)ccc1cccnc12 [1,10-phenalthroline monohydrate]
CDT / growth defect in growth curve, ΔcopA (ΔcopA mutant strain): an effect | copper-dependent toxicity (CDT) / growth defect in growth curve (WT TIGR4 S. pneumoniae [2]; WT TIGR4): no effect on wild type

COc1cc(C(C)=O)ccc1O [apocynin]
recovered bacteria with macrophage inhibitor treatment [3]: no statistically significant improvement

CCN(CC)C(=S)S [DETDC, N,N-diethyldithiocarbamate]
CDT at much higher / high concentrations (WT TIGR4 S. pneumoniae [2]; with copper): no effect

S=C(S)N1CCN(C(=S)S)CC1 [TLA2, Piperizine bis-dithiocarbamate]
concentration showing protective effect vs copper (WT TIGR4 S. pneumoniae [2]; 250 uM or 500 uM copper sulfate): > 32 µM

CC1(C)C2CC3OB(c4cccc5cccnc45)OC3(C)C1C2 (stereo not drawn) [QBP, quinoline boronic acid pinanediol ester]
CDT / growth defect in growth curve, ΔcopA (ΔcopA mutant strain): susceptible; also recorded: does cause a growth defect | CDT on the ΔcopA mutant as compared to 8HQ (ΔcopA mutant strain): did not exhibit as much CDT | copper-dependent toxicity (CDT) / growth defect in growth curve (WT TIGR4 S. pneumoniae [2]; WT TIGR4): no CDT; also recorded: do not cause a significant growth defect

CN(C)C(=S)[S][Na] [DMDC]
side effects (Coccidioides posadasii): No side effects | side effects (Streptococcus pyogenes): No side effects | kill of wild-type Streptococcus pneumoniae (WT TIGR4 S. pneumoniae [1]; low micromolar DMDC complexed with copper, in 2 hours): up to 99.9% | side effects (Streptococcus pneumoniae): No side effects | time required for killing (WT TIGR4 S. pneumoniae [5]): 1 to 2 h | side effects [6]: No side effects | increase of intracellular copper compared to the copper treated samples (TIGR4 S. pneumoniae [7]; 250 μM Cu2+ + 16 μM DMDC): 7 fold | increase of intracellular copper compared to the copper treated samples (TIGR4 S. pneumoniae [7]; 250 μM Cu2+ + 32 μM DMDC): 10 fold | toxicity of chronic use ([4]; chronic use): harm the liver and lead to higher rates of some carcinomas | toxicity of high doses ([4]; high doses): neurological problems | time required for killing (WT TIGR4 S. pneumoniae [8]): 3 to 4 h | increase of intracellular copper compared to the untreated control (TIGR4 S. pneumoniae [9]; 250 μM Cu2+ + 16 μM DMDC): 65 fold | increase of intracellular copper compared to the untreated control (TIGR4 S. pneumoniae [9]; 250 μM Cu2+ + 32 μM DMDC): 67 fold
